Like-named read-outs stand apart in the source and are kept apart here.
Key:
Format in all cases: cell-based
human GLP-2R = molecular target: T1, human GLP-2R (Homo sapiens, UniProt O95838); assay: HitHunter cAMP assay in transiently transfected COS-7 cells, human GLP-2R;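 further: cells kept 30 min at 37 °C in buffer with 1 mM IBMX, then given ligand for another 30 min at 37 °C before cAMP readout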
T1 construct: host or cells: COS-7
T1 sequence (O95838 1-553): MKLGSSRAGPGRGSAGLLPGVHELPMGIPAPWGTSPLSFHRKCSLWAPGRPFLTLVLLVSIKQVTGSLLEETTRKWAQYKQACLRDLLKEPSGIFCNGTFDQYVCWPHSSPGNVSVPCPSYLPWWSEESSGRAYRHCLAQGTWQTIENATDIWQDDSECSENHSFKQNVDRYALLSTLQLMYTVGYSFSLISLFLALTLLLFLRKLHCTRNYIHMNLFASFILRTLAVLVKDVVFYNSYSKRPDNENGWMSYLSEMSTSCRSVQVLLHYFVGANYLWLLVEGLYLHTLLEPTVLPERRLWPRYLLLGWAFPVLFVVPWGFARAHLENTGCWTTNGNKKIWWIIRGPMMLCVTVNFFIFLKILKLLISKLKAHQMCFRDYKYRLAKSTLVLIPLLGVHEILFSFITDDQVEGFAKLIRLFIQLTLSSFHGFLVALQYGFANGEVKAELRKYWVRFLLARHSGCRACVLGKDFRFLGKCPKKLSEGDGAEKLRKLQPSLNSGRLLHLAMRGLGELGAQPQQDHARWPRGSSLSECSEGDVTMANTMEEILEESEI
Protocol: COS-7 cells were cultured at 10% CO2 and 37° C. in Dulbecco's Modified Eagle Medium (DMEM) 1885 supplemented with 10% fetal bovine serum (FBS), 2 mM glutamine, 180 units/ml penicillin, and 45 g/ml streptomycin.
The next day the assay was initiated by washing with HEPES buffered saline (HBS) and followed by an incubation step with assay buffer (HBS added 1 mM isobutyl-1-methylxanthine (IBMX)) for 30 min at 37° C. The ligands were then added and incubated for an additional 30 min at 37° C. After ligand incubation, the HitHunter® CAMP assay (Eurofins DiscoverX, Fremont, 150 USA) was carried out according to the manufacturer's instructions. Luminescence was measured by PerkinElmer™ EnVision 2014 Multilabel Reader (PerkinElmer, Waltham, MA). The potencies (EC50 values) were determined by nonlinear regression using GraphPad Prism 9 (San Diego, California, USA). Sigmoid curves were fitted logistically. The efficacies (Emax values) were determined by normalization to the highest concentration applied of the endogenous ligand for each receptor.

human SNAP-GIPR = molecular target: T2, human SNAP-GIPR (Homo sapiens, UniProt P48546); set-up: AUC ± SD: unit not given beside the values; conditions: for Emax ± SD (%): GIPR internalization, NA = no activity
T2 construct: host or cells: HEK293A
T2 sequence (P48546 22-466): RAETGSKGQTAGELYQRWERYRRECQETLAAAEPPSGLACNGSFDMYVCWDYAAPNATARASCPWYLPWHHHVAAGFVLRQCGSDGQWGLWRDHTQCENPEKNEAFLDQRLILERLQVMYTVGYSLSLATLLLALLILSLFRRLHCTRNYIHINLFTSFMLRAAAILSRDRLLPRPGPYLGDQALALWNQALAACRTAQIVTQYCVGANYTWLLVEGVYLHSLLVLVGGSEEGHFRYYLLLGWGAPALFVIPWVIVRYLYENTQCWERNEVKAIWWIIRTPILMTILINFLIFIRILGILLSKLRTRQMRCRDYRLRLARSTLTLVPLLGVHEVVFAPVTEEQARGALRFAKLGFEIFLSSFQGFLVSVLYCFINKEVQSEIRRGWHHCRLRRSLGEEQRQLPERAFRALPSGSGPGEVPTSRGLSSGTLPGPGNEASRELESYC

rat GIPR = molecular target: T3, rat GIPR (Rattus norvegicus, UniProt P43219); assay: HitHunter cAMP assay in transiently transfected COS-7 cells, rat GIPR; conditions: Emax normalized to highest concentration of endogenous ligand
T3 construct: expressed in transfected cells; host or cells: COS-7
T3 sequence (P43219 19-455): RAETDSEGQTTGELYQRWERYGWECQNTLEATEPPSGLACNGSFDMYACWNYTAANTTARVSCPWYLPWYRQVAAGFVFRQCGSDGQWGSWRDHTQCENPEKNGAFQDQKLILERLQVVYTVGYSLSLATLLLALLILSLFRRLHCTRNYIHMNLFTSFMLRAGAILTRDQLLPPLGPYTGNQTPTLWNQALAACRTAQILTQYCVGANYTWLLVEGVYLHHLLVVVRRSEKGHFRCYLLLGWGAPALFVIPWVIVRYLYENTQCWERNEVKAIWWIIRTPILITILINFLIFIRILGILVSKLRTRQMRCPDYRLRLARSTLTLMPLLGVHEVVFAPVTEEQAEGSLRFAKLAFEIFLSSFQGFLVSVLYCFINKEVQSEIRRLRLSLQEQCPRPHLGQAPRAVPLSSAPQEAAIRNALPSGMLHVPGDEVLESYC
Protocol: (§1) The next day the assay was initiated by washing with HEPES buffered saline (HBS) and followed by an incubation step with assay buffer (HBS added 1 mM isobutyl-1-methylxanthine (IBMX)) for 30 min at 37° C. The ligands were then added and incubated for an additional 30 min at 37° C. After ligand incubation, the HitHunter® CAMP assay (Eurofins DiscoverX, Fremont, […] USA) was carried out according to the manufacturer's instructions. Luminescence was measured by PerkinElmer™ EnVision 2014 Multilabel Reader (PerkinElmer, Waltham, MA). The potencies (EC50 values) were determined by nonlinear regression using GraphPad Prism 9 (San Diego, California, USA). Sigmoid curves were fitted logistically. The efficacies (Emax values) were determined by normalization to the highest concentration applied of the endogenous ligand for each receptor.

rat GLP-2R = molecular target: T4, rat GLP-2R (Rattus norvegicus, UniProt Q9Z0W0); assay: HitHunter cAMP assay in transiently transfected COS-7 cells, rat GLP-2R; conditions: Emax normalized to highest concentration of endogenous ligand
T4 construct: expressed in transfected cells; host or cells: COS-7
T4 sequence (Q9Z0W0 1-550): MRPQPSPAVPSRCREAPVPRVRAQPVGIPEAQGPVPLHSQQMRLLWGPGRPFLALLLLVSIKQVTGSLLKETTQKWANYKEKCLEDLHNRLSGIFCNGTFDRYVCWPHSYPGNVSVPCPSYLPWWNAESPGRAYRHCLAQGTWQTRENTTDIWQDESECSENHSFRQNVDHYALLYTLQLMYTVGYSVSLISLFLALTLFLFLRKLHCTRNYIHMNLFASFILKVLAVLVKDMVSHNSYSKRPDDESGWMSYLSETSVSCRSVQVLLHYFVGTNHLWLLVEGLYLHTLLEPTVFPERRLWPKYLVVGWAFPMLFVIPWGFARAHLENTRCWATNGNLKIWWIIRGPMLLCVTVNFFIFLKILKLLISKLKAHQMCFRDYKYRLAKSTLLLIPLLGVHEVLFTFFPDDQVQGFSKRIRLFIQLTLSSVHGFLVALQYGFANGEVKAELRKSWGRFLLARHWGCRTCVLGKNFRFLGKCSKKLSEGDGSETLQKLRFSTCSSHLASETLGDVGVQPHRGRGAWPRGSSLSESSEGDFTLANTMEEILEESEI
Protocol: as §1

human GIPR [1] = molecular target: T5, human GIPR (Homo sapiens, UniProt P48546); set-up: host or cells: COS-7
T5 sequence (P48546 22-466): T2 sequence (P48546 22-466)

human GIPR [2] = molecular target: T5, human GIPR; set-up: host or cells: HEK293; conditions: beta-arrestin 2 recruitment; for AUC ± SD: AUC of sigmoid curves up to 100 nM; for Emax ± SD (%): normalized to highest concentration of GIP, NA = no activity
Protocol: HEK293 cells were cultured at 10% CO2 and 37° C. in DMEM-GlutaMAX™-I supplemented with 10% FBS, 180 units/mL penicillin and 45 g/mL streptomycin. These cells were transfected using PEI for the beta-arrestin recruitment assay as described in detail in (van der Velden et al., 2021).
HEK293 cells were transiently transfected with human GIPR, the donor Rluc8-Arrestin-3-Sp1 (beta-arrestin 2 recruitment), the acceptor mem-linker-citrine-SH3, and the GPCR kinase 2 (GRK2). Two days following transfection, the cells were washed with PBS and resuspended in PBS with 5 mM glucose. Then, 85 μL of the cell suspension solution was added to each well of a white 96-well plate followed by the addition of PBS with 5 μM coelenterazine-h. Following 10 min incubation, increasing concentrations of ligands were added and incubated for an additional 30 min. Luminescence was measured with the Berthold Technologies Mithras Multilabel Reader (Rluc8 at 485±40 nm and YFP at 530±25 nm). The potencies (EC50 values) were determined by nonlinear regression using GraphPad Prism 9 (San Diego, California, USA). Sigmoid curves were fitted logistically. The efficacies (Emax values) were determined by normalization to the highest concentration applied of the endogenous ligand (GIP) for the GIPR.

human GLP-1R = molecular target: T6, human GLP-1R (Homo sapiens, UniProt P43220); assay: HitHunter cAMP assay in transiently transfected COS-7 cells, human GLP-1R; conditions: for activation of hGLP-1R: fatty acid at C-terminal residue or position 16
T6 construct: host or cells: COS-7
T6 sequence (P43220 24-463): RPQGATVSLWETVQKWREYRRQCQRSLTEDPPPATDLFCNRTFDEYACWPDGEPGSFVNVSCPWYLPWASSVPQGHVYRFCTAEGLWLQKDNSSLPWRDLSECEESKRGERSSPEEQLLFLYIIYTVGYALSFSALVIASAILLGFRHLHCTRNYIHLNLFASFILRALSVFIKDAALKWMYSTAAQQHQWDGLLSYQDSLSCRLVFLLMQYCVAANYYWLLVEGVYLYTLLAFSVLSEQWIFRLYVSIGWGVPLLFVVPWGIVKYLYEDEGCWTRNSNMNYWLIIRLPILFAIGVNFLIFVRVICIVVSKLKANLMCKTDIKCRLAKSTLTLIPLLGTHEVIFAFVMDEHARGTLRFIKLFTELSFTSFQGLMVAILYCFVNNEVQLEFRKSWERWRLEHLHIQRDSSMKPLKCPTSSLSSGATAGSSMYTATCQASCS
Protocol: as §1

[3] = Emax normalized to highest concentration of endogenous ligand, Table 2
[4] = Emax normalized to highest concentration of endogenous ligand, Table 3
[5] = comparative peptides, Emax normalized to endogenous ligand, Table B
[6] = comparative peptides, Emax normalized to endogenous ligand, Table C
[7] = comparative peptides, Emax normalized to endogenous ligand, Table 4A

Substance	Efficacy GLP-2R (human GLP-2R; [3])	AUC ± SD (human SNAP-GIPR)	Emax ± SD (%) (human SNAP-GIPR)	rGIPR Efficacy (%) (rat GIPR)	rGLP-2R Efficacy (%) (rat GLP-2R)	Efficacy GIPR (human GIPR [1]; [3])	AUC ± SD (human GIPR [2])	Emax ± SD (%) (human GIPR [2])	Efficacy GLP-1R (human GLP-1R; [4])	Efficacy GLP-2R (human GLP-2R; [5])	Efficacy GLP-1R (human GLP-1R; [6])	activation of hGLP-1R (human GLP-1R)	Efficacy GIPR (human GIPR [1]; [7])
H-Aib-DGTFISDY-K(γGlu-C16)-T-Aib-LDALAARDFIEWLIQTKITK-OH [Compound no. 33]	97	27 ± 2	25 ± 3%	98.7%	96.3%	101	23 ± 12	9 ± 5%	–	–	–	–	–
H-Aib-DGTFISDY-K(γGlu-C16)-TAib-LDNLAARDFINWLIQTKITKNDWKHNITQ-OH [Compound no. 37]	97	15 ± 4	24 ± 5%	91.0%	83.3%	–	0	15 ± 41%	–	–	–	–	–
H-Aib-DGTFISDY-K(γGlu-C16)-TILDNLAARDFINWLIQTKGKKNDWKHNITQ-NH2 [Compound no. 14]	114	–	–	98.3%	93.3%	101	–	–	0	–	–	–	–
H-Aib-DGTFISDYS-K(γGlu-C16)-Aib-LDNLAARDFINWLIQTKITK-OH [Compound no. 35]	88	–	–	86.3%	87.3%	106	58 ± 14	34 ± 7%	31	–	–	–	–
H-Aib-DGTFISDYST-Aib-LDNLAARDFINWLIQTKITK(C10)-NH2 [Compound no. 65, reference compound]	–	–	–	–	–	–	–	–	–	77	76	capable of activating hGLP-1R	107
H-Aib-DGTFISDYSTIL-K(γGlu-C16)-NLAARDFINWLIQTKITK-OH [Compound no. 13]	95	–	–	69.7%	83.7%	95	–	–	4	–	–	–	–
H-Aib-DGTFISDYSTILDNLAARDFINWLIQTKITK(C10)-OH [Compound no. 63, reference compound]	–	–	–	–	–	–	–	–	–	105	84	capable of activating hGLP-1R	99
H-Aib-EG-K(γGlu-C16)-FISDYST-Aib-LDNLAARDFINWLIQTKITK-OH [Compound no. 27]	108	–	–	–	–	98	–	–	0	–	–	–	–

— patent publication US20250304643A1, “PEPTIDE DUAL AGONISTS OF GIPR AND GLP2R” (BAINAN BIOTECH APS, priority 2021, published 2025)
